Test results from patent publication US8846698B2, “Pyrrolo[2,3-d]pyrimidine tropomysin-related kinase inhibitors” (Pfizer Limited, priority 2011, dated 2014).

What follows are compounds tested against TRKA (Homo sapiens (Human), UniProt P04629) (assay: Isolated TRK enzyme assay (HTRF KinEASE-TK), TRKA). Conditions: read-out: Trka enzyme (IC50).
Assay type: biochemical

Chain of TRKA (P04629 441-796): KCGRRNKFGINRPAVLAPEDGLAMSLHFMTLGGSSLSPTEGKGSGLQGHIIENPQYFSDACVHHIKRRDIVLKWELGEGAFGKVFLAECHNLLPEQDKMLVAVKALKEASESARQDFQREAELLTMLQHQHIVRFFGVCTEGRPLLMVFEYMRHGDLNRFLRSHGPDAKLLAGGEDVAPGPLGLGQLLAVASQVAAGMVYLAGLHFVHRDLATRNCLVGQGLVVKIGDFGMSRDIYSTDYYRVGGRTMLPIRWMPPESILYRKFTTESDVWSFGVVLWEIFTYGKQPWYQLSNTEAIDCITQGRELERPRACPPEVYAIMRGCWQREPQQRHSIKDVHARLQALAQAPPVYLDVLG

Row | IC50 | Structure (SMILES)
1 | 94.1 nM | Cc1ccc(CC(=O)Nc2cncc(C(=O)c3cn(C(C)C)c4ncncc34)c2)cn1 [Example 154, N-{5-[(7-isopropyl-7H-pyrrolo[2,3-d]pyrimidin-5-yl)carbonyl]pyridin-3-yl}-2-(6-methylpyridin-3-yl)acetamide]
2 | 49.1 nM | Cc1ccc2ccc(CC(=O)Nc3cncc(C(=O)c4cn(C(C)C)c5ncncc45)c3)cc2n1 [Example 155, N-{5-[(7-isopropyl-7H-pyrrolo[2,3-d]pyrimidin-5-yl)carbonyl]pyridin-3-yl}-2-(2-methylquinolin-7-yl)acetamide]
3 | 133 nM | COc1ccc2[nH]c(C)c(CC(=O)Nc3cncc(C(=O)c4cn(C(C)C)c5ncncc45)c3)c2c1 [Example 156, N-{5-[(7-isopropyl-7H-pyrrolo[2,3-d]pyrimidin-5-yl)carbonyl]pyridin-3-yl}-2-(5-methoxy-2-methyl-1H-indol-3-yl)acetamide]
4 | 174 nM | CC(C)n1cc(C(=O)c2cncc(NC(=O)Cc3ccc4nnnn4n3)c2)c2cncnc21 [Example 157, N-{5-[(7-isopropyl-7H-pyrrolo[2,3-d]pyrimidin-5-yl)carbonyl]pyridin-3-yl}-2-tetrazolo[1,5-b]pyridazin-6-ylacetamide]
5 | 230 nM | CC(C)n1cc(C(=O)c2cncc(NC(=O)Cc3c[nH]c4ccc(O)cc34)c2)c2cncnc21 [Example 158, 2-(5-hydroxy-1H-indol-3-yl)-N-{5-[(7-isopropyl-7H-pyrrolo[2,3-d]pyrimidin-5-yl)carbonyl]pyridin-3-yl}acetamide]
6 | 234 nM | CC(C)n1cc(C(=O)c2cncc(NC(=O)Cc3c[nH]c4nccnc34)c2)c2cncnc21 [Example 159, N-{5-[(7-isopropyl-7H-pyrrolo[2,3-d]pyrimidin-5-yl)carbonyl]pyridin-3-yl}-2-(5H-pyrrolo[2,3-b]pyrazin-7-yl)acetamide]
7 | 1080 nM | Cc1cc2ncn(CC(=O)Nc3cncc(C(=O)c4cn(C(C)C)c5ncncc45)c3)c2cc1C [Example 160, 2-(5,6-dimethyl-1H-benzimidazol-1-yl)-N-{5-[(7-isopropyl-7H-pyrrolo[2,3-d]pyrimidin-5-yl)carbonyl]pyridin-3-yl}acetamide]
8 | 6270 nM | CC(C)n1cc(C(=O)c2cncc(NC(=O)Cn3cc(-c4ccccn4)nn3)c2)c2cncnc21 [Example 161, N-{5-[(7-isopropyl-7H-pyrrolo[2,3-d]pyrimidin-5-yl)carbonyl]pyridin-3-yl}-2-(4-pyridin-2-yl-1H-1,2,3-triazol-1-yl)acetamide]
9 | 324 nM | Cc1cn(CC(=O)Nc2cncc(C(=O)c3cn(C(C)C)c4ncncc34)c2)nn1 [Example 162, N-{5-[(7-isopropyl-7H-pyrrolo[2,3-d]pyrimidin-5-yl)carbonyl]pyridin-3-yl}-2-(4-methyl-1H-1,2,3-triazol-1-yl)acetamide]
10 | 1840 nM | Cc1[nH]nc(-c2ccccc2)c1CC(=O)Nc1cncc(C(=O)c2cn(C(C)C)c3ncncc23)c1 [Example 163, N-{5-[(7-isopropyl-7H-pyrrolo[2,3-d]pyrimidin-5-yl)carbonyl]pyridin-3-yl}-2-(5-methyl-3-phenyl-1H-pyrazol-4-yl)acetamide]
11 | 133 nM | CSc1ncc(CC(=O)Nc2cncc(C(=O)c3cn(C(C)C)c4ncncc34)c2)cn1 [Example 164, N-{5-[(7-isopropyl-7H-pyrrolo[2,3-d]pyrimidin-5-yl)carbonyl]pyridin-3-yl}-2-[2-(methylthio)pyrimidin-5-yl]acetamide]
12 | 3400 nM | CC(C)n1cc(C(=O)c2cncc(NC(=O)Cc3ncccn3)c2)c2cncnc21 [Example 165, N-{5-[(7-isopropyl-7H-pyrrolo[2,3-d]pyrimidin-5-yl)carbonyl]pyridin-3-yl}-2-pyrimidin-2-ylacetamide]
13 | 3470 nM | Cn1cc(C(=O)c2cncc(NC(=O)Cc3cc(F)ccc3C(F)(F)F)c2)c2cncnc21 [Example 167, 2-[5-Fluoro-2-(trifluoromethyl)phenyl]-N-{5-[(7-methyl-7H-pyrrolo[2,3-d]pyrimidin-5-yl)carbonyl]pyridin-3-yl}acetamide]
14 | 702 nM | Cc1cccc(CC(=O)Nc2cncc(C(=O)c3cn(C)c4ncncc34)c2)c1 [Example 168, 2-(3-methylphenyl)-N-{5-[(7-methyl-7H-pyrrolo[2,3-d]pyrimidin-5-yl)carbonyl]pyridin-3-yl}acetamide]
15 | 3100 nM | Cn1cc(C(=O)c2cncc(NC(=O)Cc3ccccc3C(F)(F)F)c2)c2cncnc21 [Example 169, N-{5-[(7-methyl-7H-pyrrolo[2,3-d]pyrimidin-5-yl)carbonyl]pyridin-3-yl}-2-[2-(trifluoromethyl)phenyl]acetamide]
16 | 3100 nM | Cn1cc(C(=O)c2cncc(NC(=O)Cc3cc(F)cc(F)c3)c2)c2cncnc21 [Example 170, 2-(3,5-difluorophenyl)-N-{5-[(7-methyl-7H-pyrrolo[2,3-d]pyrimidin-5-yl)carbonyl]pyridin-3-yl}acetamide]
17 | 1280 nM | Cn1cc(C(=O)c2cncc(NC(=O)Cc3c(F)cc(F)cc3F)c2)c2cncnc21 [Example 171, N-{5-[(7-methyl-7H-pyrrolo[2,3-d]pyrimidin-5-yl)carbonyl]pyridin-3-yl}-2-(2,4,6-trifluorophenyl)acetamide]
18 | 3840 nM | Cn1cc(C(=O)c2cncc(NC(=O)Cc3c(F)ccc(F)c3F)c2)c2cncnc21 [Example 172, N-{5-[(7-methyl-7H-pyrrolo[2,3-d]pyrimidin-5-yl)carbonyl]pyridin-3-yl}-2-(2,3,6-trifluorophenyl)acetamide]

More lines, now with the values behind:

Row | Structure (SMILES) | IC50
19 | CCc1nc2cccnc2n1CC(=O)Nc1cncc(C(=O)c2cn(C(C)C)c3ncncc23)c1 [Example 138, 2-(2-ethyl-3H-imidazo[4,5-b]pyridin-3-yl)-N-{5-[(7-isopropyl-7H-pyrrolo[2,3-d]pyrimidin-5-yl)carbonyl]pyridin-3-yl}acetamide] | 8310 nM
20 | CC(C)n1cc(C(=O)c2cncc(NC(=O)Cc3c[nH]c4ccc(Cl)cc34)c2)c2cncnc21 [Example 139, 2-(5-chloro-1H-indol-3-yl)-N-{5-[(7-isopropyl-7H-pyrrolo[2,3-d]pyrimidin-5-yl)carbonyl]pyridin-3-yl}acetamide] | 65.7 nM
21 | CC(C)n1cc(C(=O)c2cncc(NC(=O)Cc3ccn(-c4ccccc4)c3)c2)c2cncnc21 [Example 140, N-{5-[(7-isopropyl-7H-pyrrolo[2,3-d]pyrimidin-5-yl)carbonyl]pyridin-3-yl}-2-(1-phenyl-1H-pyrrol-3-yl)acetamide] | 219 nM
22 | Cc1ccc2[nH]cc(CC(=O)Nc3cncc(C(=O)c4cn(C(C)C)c5ncncc45)c3)c2c1 [Example 141, N-{5-[(7-isopropyl-7H-pyrrolo[2,3-d]pyrimidin-5-yl)carbonyl]pyridin-3-yl}-2-(5-methyl-1H-indol-3-yl)acetamide] | 59.5 nM
23 | CCc1nc2ccccc2n1CC(=O)Nc1cncc(C(=O)c2cn(C(C)C)c3ncncc23)c1 [Example 142, 2-(2-ethyl-1H-benzimidazol-1-yl)-N-{5-[(7-isopropyl-7H-pyrrolo[2,3-d]pyrimidin-5-yl)carbonyl]pyridin-3-yl}acetamide] | 1380 nM
24 | CC(C)n1cc(C(=O)c2cncc(NC(=O)Cc3cn4cccnc4n3)c2)c2cncnc21 [Example 143, 2-imidazo[1,2-a]pyrimidin-2-yl-N-{5-[(7-isopropyl-7H-pyrrolo[2,3-d]pyrimidin-5-yl)carbonyl]pyridin-3-yl}acetamide] | 4730 nM
25 | CC(C)n1cc(C(=O)c2cncc(NC(=O)Cc3n[nH]c4ccccc34)c2)c2cncnc21 [Example 144, 2-(1H-indazol-3-yl)-N-{5-[(7-isopropyl-7H-pyrrolo[2,3-d]pyrimidin-5-yl)carbonyl]pyridin-3-yl}acetamide] | 71.5 nM
26 | COc1cc(F)cc2ccn(CC(=O)Nc3cncc(C(=O)c4cn(C(C)C)c5ncncc45)c3)c12 [Example 145, 2-(5-fluoro-7-methoxy-1H-indol-1-yl)-N-{5-[(7-isopropyl-7H-pyrrolo[2,3-d]pyrimidin-5-yl)carbonyl]pyridin-3-yl}acetamide] | 37.4 nM
27 | CC(C)n1cc(C(=O)c2cncc(NC(=O)Cc3cn(Cc4ccccc4)nn3)c2)c2cncnc21 [Example 146, 2-(1-benzyl-1H-1,2,3-triazol-4-yl)-N-{5-[(7-isopropyl-7H-pyrrolo[2,3-d]pyrimidin-5-yl)carbonyl]pyridin-3-yl}acetamide] | 573 nM
28 | CC(C)n1cc(C(=O)c2cncc(NC(=O)Cc3nn(C)c4cc(Cl)ccc34)c2)c2cncnc21 [Example 147, 2-(6-chloro-1-methyl-1H-indazol-3-yl)-N-{5-[(7-isopropyl-7H-pyrrolo[2,3-d]pyrimidin-5-yl)carbonyl]pyridin-3-yl}acetamide] | 76.4 nM
29 | CC(C)n1cc(C(=O)c2cncc(NC(=O)Cc3c[nH]c4c(Cl)cccc34)c2)c2cncnc21 [Example 148, 2-(7-chloro-1H-indol-3-yl)-N-{5-[(7-isopropyl-7H-pyrrolo[2,3-d]pyrimidin-5-yl)carbonyl]pyridin-3-yl}acetamide] | 93.4 nM
30 | Cc1c(-c2ccccc2)cnn1CC(=O)Nc1cncc(C(=O)c2cn(C(C)C)c3ncncc23)c1 [Example 149, N-{5-[(7-isopropyl-7H-pyrrolo[2,3-d]pyrimidin-5-yl)carbonyl]pyridin-3-yl}-2-(5-methyl-4-phenyl-1H-pyrazol-1-yl)acetamide] | 3570 nM
31 | CC(C)n1cc(C(=O)c2cncc(NC(=O)Cc3cncc(Br)c3)c2)c2cncnc21 [Example 150, 2-(5-bromopyridin-3-yl)-N-{5-[(7-isopropyl-7H-pyrrolo[2,3-d]pyrimidin-5-yl)carbonyl]pyridin-3-yl}acetamide] | 51 nM
32 | CC(C)n1cc(C(=O)c2cncc(NC(=O)Cc3ccccn3)c2)c2cncnc21 [Example 151, N-{5-[(7-isopropyl-7H-pyrrolo[2,3-d]pyrimidin-5-yl)carbonyl]pyridin-3-yl}-2-pyridin-2-ylacetamide] | 232 nM
33 | COc1ccc(CC(=O)Nc2cncc(C(=O)c3cn(C(C)C)c4ncncc34)c2)cn1 [Example 152, N-{5-[(7-isopropyl-7H-pyrrolo[2,3-d]pyrimidin-5-yl)carbonyl]pyridin-3-yl}-2-(6-methoxypyridin-3-yl)acetamide] | 82.5 nM
34 | Cc1ccc2[nH]c(C)c(CC(=O)Nc3cncc(C(=O)c4cn(C(C)C)c5ncncc45)c3)c2c1 [Example 153, 2-(2,5-dimethyl-1H-indol-3-yl)-N-{5-[(7-isopropyl-7H-pyrrolo[2,3-d]pyrimidin-5-yl)carbonyl]pyridin-3-yl}acetamide] | 71.5 nM
